In ChEMBL document CHEMBL5223108, “Aiming to improve binding of porphyrin diphenyl guanidinium conjugates to guanine-quadruplexes: When size matters” (Bioorg Med Chem Lett, 2022):
The source made the active and inactive calls. The rule behind the calls is not given here.

What was measured:
Quadruplex DNA [1] = assay: Binding affinity to human c-KIT1 G4 quadruplex DNA assessed as change in melting temperature at 10 uM by UV analysis; format: nucleic-acid assay
Quadruplex DNA [2] = assay: Binding affinity to human 22AG_Na G4 quadruplex DNA assessed as change in melting temperature at 10 uM by UV analysis; format: nucleic-acid assay
Quadruplex DNA [3] = assay: Binding affinity to human c-KIT2 G4 quadruplex DNA assessed as change in melting temperature at 10 uM by UV analysis; format: nucleic-acid assay
Quadruplex DNA [4] = assay: Binding affinity to 22AG_Na G4 quadruplex DNA (unknown origin) assessed as change in melting temperature at 1:2 G4:ligand ratio by UV analysis (reference value: 55.9 degreeC); format: nucleic-acid assay
Salmonidae = assay: Binding affinity to salmon testes […] DNA assessed as change in melting temperature at 1:2 […] ratio by UV analysis (reference value: 66.6 degreeC)
Quadruplex DNA [5] = assay: Binding affinity to KRAS G4 quadruplex DNA (unknown origin) assessed as change in melting temperature at 1:2 G4:ligand ratio by UV analysis (reference value: 48.7 degreeC); format: nucleic-acid assay
Quadruplex DNA [6] = assay: Binding affinity to 23TA G4 quadruplex DNA (unknown origin) assessed as change in melting temperature at 1:2 G4:ligand ratio by UV analysis (reference value: 59.5 degreeC); format: nucleic-acid assay
Quadruplex DNA [7] = assay: Binding affinity to 22AG_K G4 quadruplex DNA (unknown origin) assessed as change in melting temperature at 1:2 G4:ligand ratio by UV analysis (reference value: 60.1 degreeC); format: nucleic-acid assay
Quadruplex DNA [8] = assay: Binding affinity to c-KIT1 G4 quadruplex DNA (unknown origin) by CD spectroscopy analysis; format: nucleic-acid assay
Quadruplex DNA [9] = assay: Binding affinity to c-KIT2 G4 quadruplex DNA (unknown origin) assessed as change in melting temperature at 1:2 G4:ligand ratio by UV analysis (reference value: 59.1 degreeC); format: nucleic-acid assay
Quadruplex DNA [10] = assay: Binding affinity to c-KIT1 G4 quadruplex DNA (unknown origin) assessed as change in melting temperature at 1:2 G4:ligand ratio by UV analysis (reference value: 66.5 degreeC); format: nucleic-acid assay
Quadruplex DNA [11] = assay: Binding affinity to 22AG_Na G4 quadruplex DNA (unknown origin) by CD spectroscopy analysis; format: nucleic-acid assay

Row | ΔTm (Quadruplex DNA [1]) [°C] | ΔTm (Quadruplex DNA [2]) [°C] | ΔTm (Quadruplex DNA [3]) [°C] | ΔTm (Quadruplex DNA [4]) [°C] | ΔTm (Salmonidae) [°C] | ΔTm (Quadruplex DNA [5]) [°C] | ΔTm (Quadruplex DNA [6]) [°C] | ΔTm (Quadruplex DNA [7]) [°C] | Activity (Quadruplex DNA [8]) | ΔTm (Quadruplex DNA [9]) [°C] | ΔTm (Quadruplex DNA [10]) [°C] | Activity (Quadruplex DNA [11]) | SMILES
1 | 1 | -4.9 | > 20 | – | – | – | – | – | – | – | – | – | N=C(N)Nc1ccc(Sc2ccc(NC(=N)NC(=O)Nc3ccc(-c4c5nc(c(-c6ccccc6)c6ccc([nH]6)c(-c6ccccc6)c6nc(c(-c7ccccc7)c7ccc4[nH]7)C=C6)C=C5)cc3)cc2)cc1
2 | 2.2 | -2.7 | > 20 | – | – | – | – | – | – | – | – | – | N=C(N)Nc1ccc(Oc2ccc(NC(=N)NC(=O)Nc3ccc(-c4c5nc(c(-c6ccccc6)c6ccc([nH]6)c(-c6ccccc6)c6nc(c(-c7ccccc7)c7ccc4[nH]7)C=C6)C=C5)cc3)cc2)cc1
3 | – | – | – | 10.2 | 0.02 | 2.91 | 2.42 | -1.05 | inactive | -1.49 | -7.84 | inactive | N=C(N)Nc1ccc(S(=O)(=O)c2ccc(NC(=N)NC(=O)Nc3ccc(-c4c5nc(c(-c6ccccc6)c6ccc([nH]6)c(-c6ccccc6)c6nc(c(-c7ccccc7)c7ccc4[nH]7)C=C6)C=C5)cc3)cc2)cc1
